Data published in patent publication US20250387357A1 (SpringWorks Therapeutics, Inc., priority 2024, published 2025).

Assays:
[1] = Pharmacokinetic parameters and characteristics of mirdametinib (Table A); parameters: species or system human; settings: in vivo
UGT and CES enzymes = test: Metabolism, primary pathway; settings: full wording over r33-r36: Metabolism involves glucuronidation and oxidation via UGT and CES enzymes

Excretion: Radioactivity in feces [1]: In feces: 27%
Excretion: Radioactivity in urine [1]: In urine: 68%
Excretion: Unchanged mirdametinib in urine [1]: In urine: 0.7%
Excretion: Unchanged mirdametinib in urine and feces [1]: In urine and feces: 9%
Metabolism primary pathway (UGT and CES enzymes): Metabolism involves
SMILES: O=C(NOC[C@H](O)CO)c1ccc(F)c(F)c1Nc1ccc(I)cc1F (single isomer, unassigned) [mirdametinib]
